Assay results from patent publication US11261186B2, “Biaryl derivative as GPR120 agonist” (LG CHEM, LTD., priority 2014, dated 2022).

molecular target: T1, hGPR120 (Homo sapiens, UniProt Q5NUL3); assay: Measurement of Activity of GPR120 Agonist (Cell-Based Assay), Calcium 5 dye fluorescence; conditions: CHO-K1 cells expressing Ga16 and hGPR120
T1 construct: expressed in transfected cells; host or cells: CHO-K1
T1 sequence (Q5NUL3 1-361): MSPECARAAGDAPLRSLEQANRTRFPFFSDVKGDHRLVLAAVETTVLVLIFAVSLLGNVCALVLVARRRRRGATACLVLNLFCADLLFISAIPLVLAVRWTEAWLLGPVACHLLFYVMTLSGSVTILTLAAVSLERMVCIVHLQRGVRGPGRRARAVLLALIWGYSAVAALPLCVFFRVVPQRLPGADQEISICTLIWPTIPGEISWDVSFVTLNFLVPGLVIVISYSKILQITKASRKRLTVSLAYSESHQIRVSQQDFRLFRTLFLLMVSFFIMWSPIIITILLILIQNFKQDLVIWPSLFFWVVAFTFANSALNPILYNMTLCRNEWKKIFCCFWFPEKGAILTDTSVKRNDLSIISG
Experimental: CHO-K1 cells expressing Ga16 and hGPR120 were dispensed into each well of a 96-well plate (3×10^4 cells/100 μl/well) and then incubated in 5% CO2, 37° C. incubator for 18 hours. Each well was treated with 100 μl of Calcium 5 dye (Molecular Devices) solution including 2% DMSO and then incubated in 5% CO2, 37° C. incubator for 1 hour. Serially diluted GPR120 agonists were prepared to a final concentration of 0.5% DMSO in a 96-well plate. Each well was treated with 50 μl of the agonist compounds using Plexstation II, and then fluorescence was measured at Ex 485 nm and Em 525 nm.
Fluorescence increased by the serially diluted GPR120 agonists is calculated as a relative percent (%) value based on the fluorescence represented by the treatment of 1% DMSO only. […] The calculation of measurement was carried out by using statistical software (Prizm).
Activity is denoted based on the following criteria: […]

SMILES	EC50 [nM]
O=C(O)CC1CCN(c2c(F)cc(-c3cccnc3OC3CCCC3)cc2F)CC1 [Example 102, 2-[1-[4-[2-(cyclopentoxy)-3-pyridyl]-2,6-difluoro-phenyl]-4-piperidyl]acetic acid]	< 200
O=C(O)CC1CCN(c2c(F)cc(-c3cccnc3OC3CCOC3)cc2F)CC1 (stereo not drawn) [Example 103, 2-[1-[2,6-difluoro-4-(2-tetrahydrofuran-3-yloxy-3-pyridyl)phenyl]-4-piperidyl]acetic acid]	200 to 2000
CC(C)Sc1ncccc1-c1cc(F)c(N2CCC(CC(=O)O)CC2)c(F)c1 [Example 104, 2-[1-[2,6-difluoro-4-(2-isopropylsulfanyl-3-pyridyl)phenyl]-4-piperidyl]acetic acid]	< 200
CC(C)Sc1cccc(-c2cc(F)c(N3CCC(CC(=O)O)CC3)c(F)c2)n1 [Example 105, 2-[1-[2,6-difluoro-4-(6-isopropylsulfanyl-2-pyridyl)phenyl]-4-piperidyl]acetic acid]	< 200
O=C(O)CC1CCN(c2c(F)cc(-c3cccc(OCC4CC4)n3)cc2F)CC1 [Example 106, 2-[1-[4-[6-(cyclopropylmethoxy)-2-pyridyl]-2,6-difluoro-phenyl]-4-piperidyl]acetic acid]	< 200
CC(C)Sc1ncccc1-c1cc(F)c(N2CCCC(CC(=O)O)C2)c(F)c1 (stereo not drawn) [Example 108, 2-[1-[2,6-difluoro-4-(2-isopropylsulfanyl-3-pyridyl)phenyl]-3-piperidyl]acetic acid]	2000 to 20000
CC(C)Sc1ncccc1-c1cc(F)c(N2CC(CC(=O)O)C2)c(F)c1 [Example 109, 2-[1-[2,6-difluoro-4-(2-isopropylsulfanyl-3-pyridyl)phenyl]azetidin-3-yl]acetic acid]	< 200
CC(C)Sc1ncccc1-c1cc(F)c(N2CCC3(CC2)CC3C(=O)O)c(F)c1 (stereo not drawn) [Example 110, 6-[2,6-difluoro-4-(2-isopropylsulfanyl-3-pyridyl)phenyl]-6-azaspiro[2.5]octan-2-carboxylic acid]	200 to 2000
CC(C)Sc1cccc(-c2cc(F)c(N3CCC4(CC3)CC4C(=O)O)c(F)c2)n1 (stereo not drawn) [Example 111, 6-[2,6-difluoro-4-(6-isopropylsulfanyl-2-pyridyl)phenyl]-6-azaspiro[2.5]octan-2-carboxylic acid]	2000 to 20000
O=C(O)CC1CN(c2c(F)cc(-c3cccnc3SC3CCCC3)cc2F)C1 [Example 112, 2-[1-[4-(2-cyclopentylsulfanyl-3-pyridyl)-2,6-difluoro-phenyl]azetidin-3-yl]acetic acid]	< 200
O=C(O)CC1CN(c2c(F)cc(-c3cccnc3OC3CCCC3)cc2F)C1 [Example 113, 2-[1-[4-[2-(cyclopentoxy)-3-pyridyl]-2,6-difluoro-phenyl]azetidin-3-yl]acetic acid]	< 200
CC(C)Sc1cccc(-c2cc(F)c(N3CC(CC(=O)O)C3)c(F)c2)n1 [Example 114, 2-[1-[2,6-difluoro-4-(6-isopropylsulfanyl-2-pyridyl)phenyl]azetidin-3-yl]acetic acid]	< 200
CC(C)Oc1cccc(-c2cc(F)c(N3CC(CC(=O)O)C3)c(F)c2)n1 [Example 115, 2-[1-[2,6-difluoro-4-(6-isopropoxy-2-pyridyl)phenyl]azetidin-3-yl]acetic acid]	< 200
O=C(O)CC1CN(c2c(F)cc(-c3cccc(OC4CCCC4)n3)cc2F)C1 [Example 116, 2-[1-[4-[6-(cyclopentoxy)-2-pyridyl]-2,6-difluoro-phenyl]azetidin-3-yl]acetic acid]	< 200
CCCSc1ncccc1-c1cc(F)c(N2CCC(CC(=O)O)CC2)c(F)c1 [Example 117, 2-[1-[2,6-difluoro-4-(2-propylsulfanyl-3-pyridyl)phenyl]-4-piperidyl]acetic acid]	< 200
O=C(O)CC1CCN(c2c(F)cc(-c3cccnc3SC3CCC3)cc2F)CC1 [Example 118, 2-[1-[4-(2-cyclobutylsulfanyl-3-pyridyl)-2,6-difluoro-phenyl]-4-piperidyl]acetic acid]	200 to 2000
CC(C)Oc1ncccc1-c1cc(F)c(N2CCC(CC(=O)O)CC2)c(F)c1 [Example 119, 2-[1-[2,6-difluoro-4-(2-isopropoxy-3-pyridyl)phenyl]-4-piperidyl]acetic acid]	200 to 2000
CCCOc1ncccc1-c1cc(F)c(N2CCC(CC(=O)O)CC2)c(F)c1 [Example 120, 2-[1-[2,6-difluoro-4-(2-propoxy-3-pyridyl)phenyl]-4-piperidyl]acetic acid]	200 to 2000
O=C(O)CC1CCN(c2c(F)cc(-c3cccnc3OCC3CC3)cc2F)CC1 [Example 121, 2-[1-[4-[2-(cyclopropylmethoxy)-3-pyridyl]-2,6-difluoro-phenyl]-4-piperidyl]acetic acid]	< 200
CC(C)Sc1ncccc1-c1cc(F)c(-n2cc(CC(=O)O)cn2)c(F)c1 [Example 122, 2-[1-[2,6-difluoro-4-(2-isopropylsulfanyl-3-pyridyl)phenyl]pyrazol-4-yl]acetic acid]	2000 to 20000
CC(C)Sc1cccc(-c2cc(F)c(-n3cc(CC(=O)O)cn3)c(F)c2)n1 [Example 123, 2-[1-[2,6-difluoro-4-(6-isopropylsulfanyl-2-pyridyl)phenyl]pyrazol-4-yl]acetic acid]	200 to 2000
CC(C)Sc1ncccc1-c1cc(F)c(N2CCC(CC(=O)O)C2)c(F)c1 (stereo not drawn) [Example 124, 2-[1-[2,6-difluoro-4-(2-isopropylsulfanyl-3-pyridyl)phenyl]pyrrolidin-3-yl]acetic acid]	< 200
CC(C)Sc1cccc(-c2cc(F)c(N3CCC(CC(=O)O)C3)c(F)c2)n1 (stereo not drawn) [Example 125, 2-[1-[2,6-difluoro-4-(6-isopropylsulfanyl-2-pyridyl)phenyl]pyrrolidin-3-yl]acetic acid]	< 200
CC(C)Sc1ncccc1-c1cc(F)c(N2CCC(CCC(=O)O)CC2)c(F)c1 [Example 126, 3-[1-[2,6-difluoro-4-(2-isopropylsulfanyl-3-pyridyl)phenyl]-4-piperidyl]propanoic acid]	< 200
O=C(O)C1CC1CCNc1c(F)cc(-c2cccnc2SC2CCCC2)cc1F (stereo not drawn) [Example 128, 2-[2-[4-(2-cyclopentylsulfanyl-3-pyridyl)-2,6-difluoro-anilino]ethyl]cyclopropanecarboxylic acid]	< 200
CC(C)Sc1ncccc1-c1cc(F)c(-n2cc(CCC(=O)O)cn2)c(F)c1 [Example 131, 3-[1-[2,6-difluoro-4-(2-isopropylsulfanyl-3-pyridyl)phenyl]pyrazol-4-yl]propanoic acid]	2000 to 20000
O=C(O)CCCN1CCc2cc(-c3cccnc3SC3CCCC3)ccc21 [Example 132, 4-[5-(2-cyclopentylsulfanyl-3-pyridyl)indolin-1-yl]butanoic acid]	< 200
CC(C)Sc1ncccc1-c1cc(F)c(N2CC(CCC(=O)O)C2)c(F)c1 [Example 133, 3-[1-[2,6-difluoro-4-(2-isopropylsulfanyl-3-pyridyl)phenyl]azetidin-3-yl]propanoic acid]	200 to 2000
CC(C)Sc1ncccc1-c1cc(F)c(N2CC[C@H](CC(=O)O)C2)c(F)c1 [Example 134, 2-[(3R)-1-[2,6-difluoro-4-(2-isopropylsulfanyl-3-pyridyl)phenyl]pyrrolidin-3-yl]acetic acid]	< 200
O=C(O)C[C@H]1CCN(c2c(F)cc(-c3cccnc3OC3CCCC3)cc2F)C1 [Example 135, 2-[(3R)-1-[4-[2-(cyclopentoxy)-3-pyridyl]-2,6-difluoro-phenyl]pyrrolidin-3-yl]acetic acid]	< 200
